According to patent publication US20250171465A1, “AKT INHIBITORS” (Stablix, Inc., priority 2023, published 2025):

Legend:
KU1919.1 = test: Cell Titer Glo (CTG) proliferation assay, KU1919; type: cell-based; conditions: Homo sapiens, KU-19-19; KU1919.1 cells, 72.0 hrs.; read-out: AVE CTG Proliferation KU1919.1 72.0 hrs.
Protocol: (§1) Seed cells in 40 μL of cell culture media into each well of 384-well cell culture plate, spin them at room temperature at 1,000 RPM for 1 minute and then transfer the plates into 37° C. 5% CO2 incubator overnight. Next day, treat cells with 40 nL of diluted compound and return to incubator. After compound treatment for 3 days, Add 30 μL of CellTiter-Glo reagent (Promega) into each well to be detected. Then place the plates at room temperature for 30 min followed by reading on EnVision. Inhibition activity calculated as % DMSO=100×(LumSample-Lum low control)/(Lum high control-Lum low control) where high control is from cells treated with 0.1% DMSO and Low control obtained from PBS only. Use XLFit (equation 201) to calculate IC50 (A+ ((B−A)/(1[…]((x/C)^D)))) where A: Bottom, B: Top, C: IC50, D: Slope.

MDAMB468.1 = test: Cell Titer Glo (CTG) proliferation assay, MDA-MB-468; type: cell-based; conditions: Homo sapiens, MDA-MB-468; MDAMB468.1 cells, 72.0 hrs.; read-out: AVE CTG Proliferation MDAMB468.1 72.0 hrs.
Protocol: as §1

Compound | IC50 (MDAMB468.1) | IC50 (KU1919.1)
NC1(C(=O)N[C@@H](CCOCCCCCNC(=O)[C@H](NC(=O)c2cccc(C3CCCN(C(=O)C45CC(C4)C5)C3)c2)C2CCCCC2)c2ccc(Cl)cc2)CCN(c2ncnc3[nH]ccc23)CC1 (stereo partly drawn) [Compound I-296] | – | > 10 µM
CCc1cccc(-c2cnc(C(=O)NCCOCCNCC[C@H](NC(=O)C3(N)CCN(c4ncnc5[nH]ccc45)CC3)c3ccc(Cl)cc3)c(NC(=O)CN3CCOCC3)c2)c1 [Compound I-178] | – | 1 to 5 µM
NC1(C(=O)N[C@@H](CCN2CCC(OC3CCN(C(=O)c4cccc(C5CCCN(C(=O)CNCc6ccc(F)cc6F)C5)c4F)CC3)CC2)c2ccc(Cl)cc2)CCN(c2ncnc3[nH]ccc23)CC1 (stereo partly drawn) [Compound I-289] | – | 1 to 5 µM
NC1(C(=O)N[C@@H](CCN2CCC(OC3CCN(C(=O)[C@H](NC(=O)c4cccc(C5CCCN(C(=O)CNC6CC6)C5)c4)C4CCCCC4)CC3)CC2)c2ccc(Cl)cc2)CCN(c2ncnc3[nH]ccc23)CC1 (stereo partly drawn) [Compound I-250] | – | 1 to 5 µM
C[C@@H]1C[C@@H](O)c2ncnc(N3CCN(C(=O)[C@H](CNCCNC(=O)CN4CCC(OC5CCN(C(=O)OC(C)(C)C)CC5)CC4)c4ccc(Cl)cc4)CC3)c21 [Compound I-314] | – | 1 to 5 µM
C[C@@H]1C[C@@H](O)c2ncnc(N3CCN(C(=O)[C@H](CNCCNC(=O)CNC45CCC(CN6CCN(C(=O)[C@H](NC(=O)c7cccc(C8CCCN(C(=O)CNC9CC9)C8)c7)C7CCCCC7)CC6)(CC4)OC5)c4ccc(Cl)cc4)CC3)c21 (stereo partly drawn) [Compound I-326] | – | 5 to 10 µM
NC1(C(=O)N[C@@H](CCN2CCC(OC3CCN(C(=O)[C@H](NC(=O)c4cc(C5CCCN(C(=O)CNCc6ccc(F)cc6F)C5)ccc4F)C4CCCCC4)CC3)CC2)c2ccc(Cl)cc2)CCN(c2ncnc3[nH]ccc23)CC1 (stereo partly drawn) [Compound I-222] | – | 1 to 5 µM
C[C@@H]1C[C@@H](O)c2ncnc(N3CCN(C(=O)[C@H](CCN4CCC(CN5CCN(C(=O)[C@H](NC(=O)c6cccc(C7CCCN(C(=O)C8CC8)C7)c6)C6CCCCC6)CC5)CC4)c4ccc(Cl)cc4)CC3)c21 (stereo partly drawn) [Compound I-265] | – | 1 to 5 µM
C[C@@H]1C[C@@H](O)c2ncnc(N3CCN(C(=O)[C@@H](CCN4CCC(CN5CCN(C(=O)[C@H](NC(=O)c6cccc(C7CCCN(C(=O)CNC8CC8)C7)c6)C6CCCCC6)CC5)CC4)c4ccc(Cl)cc4)CC3)c21 (stereo partly drawn) [Compound I-273] | – | 0.5 to 1 µM
C[C@@H]1C[C@@H](O)c2ncnc(N3CCN(C(=O)[C@H](CNCCNC(=O)CN4CCC(OC5CCN(C(=O)[C@H](NC(=O)c6cccc(C7CCCN(C(=O)C8CC8)C7)c6F)C6CCCCC6)CC5)CC4)c4ccc(Cl)cc4)CC3)c21 (stereo partly drawn) [Compound I-264] | – | 1 to 5 µM
CCc1cccc(-c2cc(F)c(C(=O)N3CCC(CN4CCN(CC[C@H](NC(=O)C5(N)CCN(c6ncnc7[nH]ccc67)CC5)c5ccc(Cl)cc5)CC4)CC3)c(F)c2)c1 [Compound I-263] | – | 1 to 5 µM
CCc1cccc(-c2cc(F)c(C(=O)N3CCC(OC4CCN(CC[C@H](NC(=O)C5(N)CCN(c6ncnc7[nH]ccc67)CC5)c5ccc(Cl)cc5)CC4)CC3)c(F)c2)c1 [Compound I-280] | – | 1 to 5 µM
NC1(C(=O)N[C@@H](CCN2CCC(OC3CCN(C(=O)[C@H](NC(=O)c4cc(C5CCCN(C(=O)C6CC6)C5)ccc4F)C4CCCCC4)CC3)CC2)c2ccc(Cl)cc2)CCN(c2ncnc3[nH]ccc23)CC1 (stereo partly drawn) [Compound I-221] | – | 1 to 5 µM
NC1(C(=O)N[C@@H](CCN2CCC(OC3CCN(C(=O)[C@H](NC(=O)c4cccc(C5CN(C(=O)C6CC6)C5)c4)C4CCCCC4)CC3)CC2)c2ccc(Cl)cc2)CCN(c2ncnc3[nH]ccc23)CC1 [Compound I-243] | – | 1 to 5 µM
C[C@@H]1C[C@@H](O)c2ncnc(N3CCN(C(=O)[C@H](CCN4CCC(CN5CCN(C(=O)[C@H](NC(=O)c6cccc(C7CCCN(C(=O)CNC8CC8)C7)c6)C6CCCCC6)CC5)CC4)c4ccc(Cl)cc4)CC3)c21 (stereo partly drawn) [Compound I-272] | – | 1 to 5 µM
NC1(C(=O)N[C@@H](CCN2CCN(C(=O)CN3CCC(OC4CCN(C(=O)[C@H](NC(=O)c5ccc(C6CN(C(=O)C7CC7)C6)cc5)C5CCCCC5)CC4)CC3)CC2)c2ccc(Cl)cc2)CCN(c2ncnc3[nH]ccc23)CC1 [Compound I-229] | – | 1 to 5 µM
NC1(C(=O)N[C@@H](CCN2CCC(OC3CCN(C(=O)[C@H](NC(=O)c4cccc(C5CCN(C(=O)C6CC6)CC5)c4F)C4CCCCC4)CC3)CC2)c2ccc(Cl)cc2)CCN(c2ncnc3[nH]ccc23)CC1 [Compound I-288] | – | 1 to 5 µM
NC1(C(=O)N[C@@H](CCOCCN2CCC(OC3CCN(C(=O)[C@H](NC(=O)c4cccc(C5CCCN(C(=O)C67CC(C6)C7)C5)c4)C4CCCCC4)CC3)CC2)c2ccc(Cl)cc2)CCN(c2ncnc3[nH]ccc23)CC1 (stereo partly drawn) [Compound I-293] | – | 1 to 5 µM

Further lines, with some results ahead:

IC50 (MDAMB468.1) | Compound | IC50 (KU1919.1)
1 to 5 µM | NC1(C(=O)N[C@@H](CCN2CCC(OC3CCN(C(=O)c4cccc(C5CCCN(C(=O)CNCc6ccc(F)cc6F)C5)c4)CC3)CC2)c2ccc(Cl)cc2)CCN(c2ncnc3[nH]ccc23)CC1 (stereo partly drawn) [Compound I-253] | 1 to 5 µM
> 10 µM | C[C@@H]1C[C@@H](O)c2ncnc(N3CCN(C(=O)[C@H](CNCCNC(=O)CN4CCC(CN5CCNCC5)CC4)c4ccc(Cl)cc4)CC3)c21 [Compound I-328] | > 10 µM
1 to 5 µM | CCc1cccc(-c2cnc(C(=O)NCCOCCNCC(=O)NCCN(C[C@@H](C(=O)N3CCN(c4ncnc5c4[C@H](C)C[C@H]5O)CC3)c3ccc(Cl)cc3)C(C)C)c(NC(C)=O)c2)c1 [Compound I-216] | 1 to 5 µM
1 to 5 µM | CCc1cccc(-c2cnc(C(=O)NCCOCCNCC[C@H](NC(=O)C3(N)CCN(c4ncnc5[nH]ccc45)CC3)c3ccc(Cl)cc3)c(NC(=O)OC(C)(C)C)c2)c1 [Compound I-301] | 1 to 5 µM
1 to 5 µM | CCc1cccc(-c2cnc(C(=O)N3CCN(CC45CCC(NCC(=O)NCCNC[C@@H](C(=O)N6CCN(c7ncnc8c7[C@H](C)C[C@H]8O)CC6)c6ccc(Cl)cc6)(CC4)CO5)CC3)c(NC(C)=O)c2)c1 [Compound I-197] | 5 to 10 µM
1 to 5 µM | NC1(C(=O)N[C@@H](CCN2CCN(C(=O)CN3CCC(OC4CCN(C(=O)[C@H](NC(=O)c5cc(C6CCCN(C(=O)CNCc7ccc(F)cc7F)C6)ccc5F)C5CCCCC5)CC4)CC3)CC2)c2ccc(Cl)cc2)CCN(c2ncnc3[nH]ccc23)CC1 (stereo partly drawn) [Compound I-225] | 1 to 5 µM
> 10 µM | CCc1cccc(-c2cnc(C(=O)NCCOCCNCC[C@H](NC(=O)C3(N)CCN(c4ncnc5[nH]ccc45)CC3)c3ccc(Cl)cc3)c(NC(C)=O)c2)c1 [Compound I-184] | 5 to 10 µM
> 10 µM | CCc1cccc(-c2cnc(C(=O)N3CCC(CN4CCN(CC(=O)NCCNC[C@@H](C(=O)N5CCN(c6ncnc7c6[C@H](C)C[C@H]7O)CC5)c5ccc(Cl)cc5)CC4)CC3)c(NC(=O)CNCc3ccncn3)c2)c1 [Compound I-165] | > 10 µM
1 to 5 µM | CCc1cccc(-c2cnc(C(=O)N3CCN(CC45CCC(NCC(=O)NCCNC[C@@H](C(=O)N6CCN(c7ncnc8c7[C@H](C)C[C@H]8O)CC6)c6ccc(Cl)cc6)(CC4)CO5)CC3)c(NC(=O)CN3CCOCC3)c2)c1 [Compound I-175] | 1 to 5 µM
5 to 10 µM | NC1(C(=O)N[C@@H](CCN2CCN(C(=O)CN3CCC(OC4CCN(C(=O)c5cccc(C6CCCN(C(=O)CNCc7ccc(F)cc7F)C6)c5)CC4)CC3)CC2)c2ccc(Cl)cc2)CCN(c2ncnc3[nH]ccc23)CC1 (stereo partly drawn) [Compound I-256] | 5 to 10 µM
1 to 5 µM | C[C@@H]1C[C@@H](O)c2ncnc(N3CCN(C(=O)[C@H](CNC4CCN(CC5CCN(C(=O)[C@H](NC(=O)c6cccc(C7CCCN(C(=O)C8CC8)C7)c6)C6CCCCC6)CC5)CC4)c4ccc(Cl)cc4)CC3)c21 (stereo partly drawn) [Compound I-214] | 1 to 5 µM
1 to 5 µM | CCc1cccc(-c2cnc(C(=O)N3CCN(CC4CCN(CC(=O)NCCNC[C@@H](C(=O)N5CCN(c6ncnc7c6[C@H](C)C[C@H]7O)CC5)c5ccc(Cl)cc5)CC4)CC3)c(NC(=O)CN3CCOCC3)c2)c1 [Compound I-173] | 1 to 5 µM
> 10 µM | C[C@@H]1C[C@@H](O)c2ncnc(N3CCN(C(=O)[C@H](CNCCNC(=O)CN4CCC(CN5CCN(C(=O)[C@H](NC(=O)c6cccc(C7CCCN(C(=O)CNC8CC8)C7)c6)C6CCCCC6)CC5)CC4)c4ccc(Cl)cc4)CC3)c21 (stereo partly drawn) [Compound I-205] | 5 to 10 µM
5 to 10 µM | C[C@@H]1C[C@@H](O)c2ncnc(N3CCN(C(=O)[C@H](CNCCNC(=O)CNC45CCC(CN6CCN(C(=O)[C@H](NC(=O)c7cccc(C8CCCN(C(=O)CNCc9ccc(F)cc9F)C8)c7)C7CCCCC7)CC6)(CC4)OC5)c4ccc(Cl)cc4)CC3)c21 (stereo partly drawn) [Compound I-203] | 5 to 10 µM
> 10 µM | NC1(C(=O)N[C@@H](CCN2CCN(C(=O)CN3CCC(OC4CCN(C(=O)c5cccc(C6CCCN(C(=O)C7CC7)C6)c5)CC4)CC3)CC2)c2ccc(Cl)cc2)CCN(c2ncnc3[nH]ccc23)CC1 (stereo partly drawn) [Compound I-255] | > 10 µM
1 to 5 µM | CCc1cccc(-c2cnc(C(=O)N3CCC(OC4CCN(CC(=O)NCCNC[C@@H](C(=O)N5CCN(c6ncnc7c6[C@H](C)C[C@H]7O)CC5)c5ccc(Cl)cc5)CC4)CC3)c(NC(=O)CN3CCOCC3)c2)c1 [Compound I-174] | 1 to 5 µM
5 to 10 µM | CCc1cccc(-c2cnc(C(=O)NCCOCCNCC[C@H](NC(=O)C3(N)CCN(c4ncnc5[nH]ccc45)CC3)c3ccc(Cl)cc3)c(N)c2)c1 [Compound I-183] | 5 to 10 µM
> 10 µM | NC1(C(=O)N[C@@H](CCN2CCN(C(=O)CN3CCC(OC4CCN(C(=O)c5cccc(C6CCCN(C(=O)CNC7CC7)C6)c5)CC4)CC3)CC2)c2ccc(Cl)cc2)CCN(c2ncnc3[nH]ccc23)CC1 (stereo partly drawn) [Compound I-257] | > 10 µM
